Test results: US20060211045A1, “Fluorescently tagged ligands” (priority 2003, published 2006)

Experiments:
human A1-receptor = target: T1, human A1-receptor (Homo sapiens, UniProt P30542); test: Live cell confocal imaging of ligand binding to CHO-A1 cells; type: cell-based; parameters: expressed in transfected cells; host or cells: CHO (CHO-K1) cells: CHO-A1 and CHO-A1fos; cell membranes in A1, whole or live cells in the other assays
T1 sequence (P30542 1-326): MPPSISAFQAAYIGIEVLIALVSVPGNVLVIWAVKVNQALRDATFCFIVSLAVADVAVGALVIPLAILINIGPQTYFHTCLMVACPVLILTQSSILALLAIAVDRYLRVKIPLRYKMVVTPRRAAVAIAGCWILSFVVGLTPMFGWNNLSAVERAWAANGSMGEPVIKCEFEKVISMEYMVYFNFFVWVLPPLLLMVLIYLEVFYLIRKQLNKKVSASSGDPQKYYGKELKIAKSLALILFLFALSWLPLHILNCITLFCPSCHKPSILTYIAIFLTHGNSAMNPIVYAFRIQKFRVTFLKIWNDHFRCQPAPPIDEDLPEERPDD
Procedure: Images were acquired using a Zeiss LSM510 confocal microscope using CHO-A1 cells grown to 50% confluency on 8-well Labtek™ plates in Dulbecco's
Modification of Eagle's Medium:Ham's F12 containing 5% foetal calf serum and 2 mM glutamine. Cells were washed twice with HEPES-buffered saline prior to incubation at 22° C. with compounds as indicated.
Functional studies were performed in CHO-K1 cells expressing both the human A1-AR and a c-fos-pGL3 reporter vector (CHO-A1fos cells). […] Luciferase expression was quantified using a Luclite® kit according to manufacturer's instructions. Live cell confocal imaging was carried out on CHO-A1 cells or CHO cells expressing the A1-AR tagged on the C-terminus with a green fluorescent protein (CHO-A1Tpz).

[1] = target: T2, human adenosine A1 receptor (A1-AR) (Homo sapiens, UniProt P30542); test: Fluorescence correlation spectroscopy (FCS) of ligand binding on CHO-A1 cells
T2 construct: expressed in transfected cells; host or cells: CHO (CHO-K1) cells: CHO-A1 and CHO-A1fos; cell membranes in A1, whole or live cells in the other assays
T2 sequence (P30542 1-326): T1 sequence (P30542 1-326)
Excerpt: FCS is a non-invasive technique which measures fluctuations in fluorescence intensity in a confocal volume of <10^−15 l. Statistical analysis of these fluctuations gives information about the speed of diffusion (i.e. mass) and concentration of the fluorescent molecules present. Thus free ligand (fast diffusing) and bound ligand (slow diffusing) can be quantified simultaneously on a single cell. We have used FCS to measure binding of the fluorescent ligand, xanthine amine cogener-BODIPY®630/650 (XAC-BY630) to the human adenosine A1 receptor (A1-AR).
CHO cells expressing either the human A1-AR or an A1-AR-Topaz fusion were cultured on glass-bottomed 8-well plates and prepared for live cell measurement FCS measurements were made using a Zeiss Confocor 2, fitted with an Axiocam CCD camera for x-y positioning. Cells were incubated with ligands at 22° C. for the times indicated and the confocal volume was positioned on the upper membrane. Data were collected for 2×30 s, following a 15 s pre-bleach and analysed using a multi-parameter equation using Zeiss AIM software.

[2] = target: human adenosine A1-receptor (Homo sapiens, UniProt P30542); test: biochemical

| Compound | Inhibition of membrane binding of XAC-BY630 (confocal imaging) (human A1-receptor; 30 min pre-incubation with DPCPX 10^−8-10^−6M, XAC-BY630 30 min, 50 nM) | Amount of τD1 component after DPCPX preincubation ([1]; 15 nM XAC-BY630 for 30 min, DPCPX 1 μM, 30 min preincubation, n=4) [receptors/μm^2] | Amount of τD1 component ([1]; 15 nM XAC-BY630 for 30 min, no DPCPX, n=8) [receptors/μm^2] | Diffusion time τD of free ligand in buffer (FCS) ([1]; in buffer, single component, n=10) [μs] | Diffusion time τD2, very slow diffusing component (non-specific binding) ([1]; upper membrane of CHO-A1 cells, XAC-BY630 1-40 nM, 10-60 min, 61/71 cells) [ms] | Diffusion time τD1, first slow-diffusing component (receptor-bound ligand) ([1]; upper membrane of CHO-A1 cells, XAC-BY630 1-40 nM, 10-60 min, 69/71 cells) [ms] | Kb [2] [nM] | Binding to membrane-localised A1-ARs (confocal imaging) (human A1-receptor; CHO-A1 cells, 22° C.) | Time after which binding was detected (confocal imaging) (human A1-receptor; XAC-BY630 25-250 nM, CHO-A1 cells) [min] |
| --- | --- | --- | --- | --- | --- | --- | --- | --- | --- |
| CCCn1c(=O)c2[nH]c(C3CCCC3)nc2n(CCC)c1=O [DPCPX, 8-cyclopentyl-1,3-dipropyl xanthine, reference compound] | concentration-dependent inhibition |  |  |  |  |  |  |  |  |
| CCCn1c(=O)c2[nH]c(-c3ccc(OCC(=O)NCCNC(=O)CCCCCNC(=O)COc4ccc(/C=C/C5=[N+]6C(=Cc7ccc(-c8cccs8)n7[B-]6(F)F)C=C5)cc4)cc3)nc2n(CCC)c1=O [XAC-BY630, xanthine amine cogener-BODIPY®630/650] |  | 13.6±5.4 | 51.8±14.9 | 60±2 | 345 ± 41 | 17.4 ± 1.1 | 126 | time- and concentration-dependent manner | 5 |
